{"source": "ChEMBL document CHEMBL1135759", "about": "“Exploring the role of bromine at C(10) of (+)-4-[2-[4-(8-chloro-3,10-dibromo- 6,11-dihydro-5H-benzo[5,6]cyclohepta[1,2-b]pyridin-11(R)-yl)-1-piperidinyl]-2- oxoethyl]-1-piperidinecarboxamide (Sch-66336): the discovery of indolocycloheptapyridine inhibitors of farnesyl protein transferase” (J Med Chem, 2002)"}
{"molecular_target": "Protein farnesyltransferase (Homo sapiens, UniProt P49354+P49356)", "assay": "Inhibition of Protein farnesyltransferase in an enzyme assay with His6-H-Ras-CVLS", "units": {"IC50": "nM"}}
{"smiles": "O=C(Cc1cc[n+]([O-])cc1)N1CCC([C@@H]2c3ccc(Cl)cc3CCc3cc(Br)cnc32)CC1", "IC50": 34}
{"smiles": "Cc1c[nH]c2c(Cl)cc3c(c12)[C@@H](C1CCN(C(=O)Cc2cc[n+]([O-])cc2)CC1)c1ncc(Br)cc1CC3", "IC50": 2.6}
{"smiles": "O=C(Cc1cc[n+]([O-])cc1)N1CCC([C@H]2c3ncccc3CCc3cc(Cl)cc(Br)c32)CC1", "IC50": 19}
{"smiles": "Cc1cn(C)c2c(Cl)cc3c(c12)C(C1CCN(C(=O)Cc2cc[n+]([O-])cc2)CC1)c1ncccc1CC3", "note": "(single isomer, unassigned; (+))", "IC50": "> 190"}
{"smiles": "O=C(Cc1cc[n+]([O-])cc1)N1CCC(C2c3ncccc3CCc3cc(Cl)c4[nH]ccc4c32)CC1", "note": "(single isomer, unassigned; (+))", "IC50": 42}
{"smiles": "Cc1c[nH]c2c(Cl)cc3c(c12)[C@@H](C1CCN(C(=O)Cc2cc[n+]([O-])cc2)CC1)c1ncccc1CC3", "note": "(stereo in doubt; (+)-10a)", "IC50": 7.4}
{"smiles": "CCCc1c[nH]c2c(Cl)cc3c(c12)[C@@H](C1CCN(C(=O)Cc2cc[n+]([O-])cc2)CC1)c1ncccc1CC3", "note": "(stereo in doubt; (+)-10b)", "IC50": 65}
{"smiles": "CCCCc1c[nH]c2c(Cl)cc3c(c12)[C@@H](C1CCN(C(=O)Cc2cc[n+]([O-])cc2)CC1)c1ncccc1CC3", "note": "(stereo in doubt; (+)-10c)", "IC50": 69}
{"smiles": "Cc1c[nH]c2c(Cl)cc3c(c12)[C@@H](C1CCN(C(=O)Cc2cc[n+]([O-])cc2)CC1)c1ncccc1CC3", "note": "(stereo in doubt; (-)-10a)", "IC50": 28}
{"smiles": "CCCc1c[nH]c2c(Cl)cc3c(c12)[C@@H](C1CCN(C(=O)Cc2cc[n+]([O-])cc2)CC1)c1ncccc1CC3", "note": "(stereo in doubt; (-)-10b)", "IC50": "> 190"}
{"smiles": "CCCCc1c[nH]c2c(Cl)cc3c(c12)[C@@H](C1CCN(C(=O)Cc2cc[n+]([O-])cc2)CC1)c1ncccc1CC3", "note": "(stereo in doubt; (-)-10c)", "IC50": "> 180"}
